Source: patent US7851474B2, “Dipiperazinyl ketones and related analogues” (Neurogen Corporation, priority 2005, dated 2010)
pKi: −log10 of the molar value.

target: T1, chimeric human H3 receptor (Homo sapiens, UniProt Q9Y5N1, E19D); test: Chimeric human H3 receptor GTP binding assay (agonist-stimulated GTP-gamma35S binding, Example 7); format: biochemical; settings: "*" in Ki of Table II; assay of Example 7; read-out: Ki
T1 construct: made in house; host or cells: Sf9 insect cells (baculovirus infection); P2 membrane preparation
T1 sequence (Q9Y5N1 with tags, fused parts or gaps E19D): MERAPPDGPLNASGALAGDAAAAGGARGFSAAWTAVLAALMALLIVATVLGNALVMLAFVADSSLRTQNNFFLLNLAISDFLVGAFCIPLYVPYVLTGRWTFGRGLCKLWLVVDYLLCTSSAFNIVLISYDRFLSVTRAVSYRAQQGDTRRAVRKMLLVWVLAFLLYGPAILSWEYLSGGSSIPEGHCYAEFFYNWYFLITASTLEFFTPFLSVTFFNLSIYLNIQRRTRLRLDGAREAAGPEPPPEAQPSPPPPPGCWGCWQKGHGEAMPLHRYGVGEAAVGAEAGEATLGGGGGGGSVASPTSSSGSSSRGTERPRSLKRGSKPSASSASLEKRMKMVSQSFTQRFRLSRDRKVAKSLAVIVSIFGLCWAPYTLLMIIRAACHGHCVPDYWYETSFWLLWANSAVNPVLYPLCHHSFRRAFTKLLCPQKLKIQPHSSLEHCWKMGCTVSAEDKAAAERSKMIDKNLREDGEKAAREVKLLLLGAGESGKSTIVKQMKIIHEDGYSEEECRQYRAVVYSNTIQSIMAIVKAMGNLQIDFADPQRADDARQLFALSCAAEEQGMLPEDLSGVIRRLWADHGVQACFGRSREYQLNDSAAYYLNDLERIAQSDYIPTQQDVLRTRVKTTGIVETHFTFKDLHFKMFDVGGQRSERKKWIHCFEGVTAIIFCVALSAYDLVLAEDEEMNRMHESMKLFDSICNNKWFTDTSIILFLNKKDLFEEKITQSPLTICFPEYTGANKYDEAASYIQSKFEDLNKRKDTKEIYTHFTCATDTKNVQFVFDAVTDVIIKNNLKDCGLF
Outline: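 IC50 values come from non-linear regression of dose-response curves of filter-bound GTP-gamma^35S, counted by scintillation. Membranes were from infected Sf9 cells carrying receptor plus G-protein subunits, 35 μg/tube, with 10 μM GDP present.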

Row | pKi | SMILES
1 | > 6.00 | O=C(CN1CCC2(CC1)C(=O)N(Cc1ccccc1)c1cccnc12)N1CCN(C2CCC2)CC1 [Compound 492, 1′-benzyl-1-[2-(4-cyclobutylpiperazin-1-yl)-2-oxoethyl]spiro[piperidine-4,3′-pyrrolo[3,2-b]pyridin]-2′(1′H)-one]

same assay, conditions: Table II "Ki", symbol "*": Ki in the assay of Example 7; read-out: Ki

Row | pKi | SMILES
2 | > 6.00 | CC(C)N1CCN(C(=O)CN2CCN(c3ccc(C(F)(F)F)cc3)CC2)CC1 [Compound 845, 1-isopropyl-4-({4-[4-(trifluoromethyl)phenyl]piperazin-1-yl}acetyl)piperazine]
3 | > 6.00 | O=C(CN1CCN(c2cnc(-c3ccc(F)cc3)cn2)CC1)N1CCN(C2CCC2)CC1 [Compound 919, 2-{4-[2-(4-cyclobutylpiperazin-1-yl)-2-oxoethyl]piperazin-1-yl}-5-(4-fluorophenyl)pyrazine]
4 | > 6.00 | Cc1cccc(-c2cnc(N3CCN(CC(=O)N4CCN(C5CCC5)CC4)CC3)cn2)c1 [Compound 924, 2-{4-[2-(4-cyclobutylpiperazin-1-yl)-2-oxoethyl]piperazin-1-yl}-5-(3-methylphenyl)pyrazine]
5 | > 6.00 | Cc1cccc(N2CCN(CC(=O)N3CCN(C4CCCCC4)CC3)CC2)c1 [Compound 821, 1-cyclohexyl-4-{[4-(3-methylphenyl)piperazin-1-yl]acetyl}piperazine]
6 | > 6.00 | O=C(CN1CCN(c2cnc(-c3ccc(OC(F)(F)F)cc3)cn2)CC1)N1CCN(C2CCC2)CC1 [Compound 934, 2-{4-[2-(4-cyclobutylpiperazin-1-yl)-2-oxoethyl]piperazin-1-yl}-5-[4-(trifluoromethoxy)phenyl] pyrazine]
7 | > 6.00 | O=C1CCc2cc(N3CCC(C(=O)OCC(=O)N4CCN(C5CCCC5)CC4)CC3)ccc21 [Compound 907, 2-(4-cyclopentylpiperazin-1-yl)-2-oxoethyl 1-(1-oxo-2,3-dihydro-1H-inden-5-yl)piperidine-4-carboxylate]
8 | > 6.00 | CCC(C)N1CCN(C(=O)CN2CCN(c3cccc(F)c3)CC2)CC1 (stereo not shown) [Compound 874, 1-sec-butyl-4-{[4-(3-fluorophenyl)piperazin-1-yl]acetyl}piperazine]
9 | > 6.00 | CC(C)N1CCN(C(=O)CN2CCN(c3ccc([N+](=O)[O-])cc3)CC2)CC1 [Compound 851, 1-isopropyl-4-{[4-(4-nitrophenyl)piperazin-1-yl]acetyl}piperazine]
10 | > 6.00 | CCC(C)N1CCN(C(=O)CN2CCN(c3cc(Cl)cc(Cl)c3)CC2)CC1 (stereo not shown) [Compound 872, 1-sec-butyl-4-{[4-(3,5-dichlorophenyl)piperazin-1-yl]acetyl}piperazine]
11 | > 6.00 | Cc1ccc(-c2cnc(N3CCN(CC(=O)N4CCN(C5CCC5)CC4)CC3)cn2)cc1C [Compound 928, 2-{4-[2-(4-cyclobutylpiperazin-1-yl)-2-oxoethyl]piperazin-1-yl}-5-(3,4-dimethylphenyl)pyrazine]

same assay, conditions: Table II, "*" in Ki; assay of Example 7; read-out: Ki

Row | pKi | SMILES
12 | > 6.00 | O=C(CN1CCN(c2ccc(-c3cc(Cl)ccc3Cl)cc2)CC1)N1CCN(C2CCC2)CC1 [Compound 682, 1-cyclobutyl-4-{[4-(2′,5′-dichlorobiphenyl-4-yl)piperazin-1-yl]acetyl}piperazine]
13 | > 6.00 | Cc1cc(-c2ccc(N3CCN(CC(=O)N4CCN(C5CCC5)CC4)CC3)cc2)ccc1F [Compound 771, 1-cyclobutyl-4-{[4-(4′-fluoro-3′-methylbiphenyl-4-yl)piperazin-1-yl]acetyl}piperazine]
14 | > 6.00 | CC1CCCCN1C(=O)c1ccc(N2CCN(CC(=O)N3CCN(C4CCC4)CC3)CC2)cc1 (stereo not shown) [Compound 644, 1-cyclobutyl-4-[(4-{4-[(2-methylpiperidin-1-yl)carbonyl]phenyl}piperazin-1-yl)acetyl]piperazine]
15 | > 6.00 | O=C(CN1CCN(c2cccc(F)c2)CC1)N1CCN(C2CCC2)CC1 [Compound 754, 1-cyclobutyl-4-{[4-(3-fluorophenyl)piperazin-1-yl]acetyl}piperazine]
16 | > 6.00 | COc1ccc(N2CCN(CC(=O)N3CCN(C4CCC4)CC3)CC2)cc1OC [Compound 733, 1-cyclobutyl-4-{[4-(3,4-dimethoxyphenyl)piperazin-1-yl]acetyl}piperazine]

same assay, conditions: Table II; assay of Example 7; "*" in Ki; read-out: Ki

Row | pKi | SMILES
17 | > 6.00 | O=C(CN1CCN(c2ccc(-c3ccccc3)nn2)CC1)N1CCN(C2CCC2)CC1 [Compound 1002, 3-{4-[2-(4-cyclobutylpiperazin-1-yl)-2-oxoethyl]piperazin-1-yl}-6-phenylpyridazine]
18 | > 6.00 | CCNC(=O)c1ccc(N2CCN(CC(=O)N3CCN(C4CCC4)CC3)CC2)cc1 [Compound 1124, 4-{1-[2-(4-cyclobutylpiperazin-1-yl)-2-oxoethyl]piperazin-1-yl}-N-ethylbenzamide]
19 | > 6.00 | CCC(C)N1CCN(C(=O)CN2CCN(c3ccc(OC)cc3)C(C)C2)CC1 (stereo not shown) [Compound 1113, 4-[2-(4-sec-butylpiperazin-1-yl)-2-oxoethyl]-1-(4-methoxyphenyl)-2-methylpiperazine]
20 | > 6.00 | O=C(CN1CCN(c2ccc(-c3cncnc3)nn2)CC1)N1CCN(C2CCC2)CC1 [Compound 1001, 3-{4-[2-(4-cyclobutylpiperazin-1-yl)-2-oxoethyl]piperazin-1-yl}-6-pyrimidin-5-ylpyridazine]
21 | > 6.00 | O=C(CN1CCN(c2ccc(-c3cc(F)cc(F)c3)nn2)CC1)N1CCN(C2CCC2)CC1 [Compound 1052, 3-{4-[2-(4-cyclobutylpiperazin-1-yl)-2-oxoethyl]piperazin-1-yl}-6-(3,5-difluorophenyl)pyridazine]
22 | > 6.00 | COc1ccc(-c2ccc(-c3ccc(N4CCN(CC(=O)N5CCN(C6CCC6)CC5)CC4)nn3)cc2)cc1 [Compound 1026, 3-{4-[2-(4-cyclobutylpiperazin-1-yl)-2-oxoethyl]piperazin-1-yl}-6-(4′-methoxybiphenyl-4-yl)pyridazine]
23 | > 6.00 | COc1ccc2cc(-c3cnc(N4CCN(CC(=O)N5CCN(C6CCC6)CC5)CC4)cn3)ccc2c1 [Compound 941, 2-{4-[2-(4-cyclobutylpiperazin-1-yl)-2-oxoethyl]piperazin-1-yl}-5-(6-methoxy-2-naphthyl)pyrazine]
24 | > 6.00 | COc1cccc(-c2ccc(N3CCN(CC(=O)N4CCN(C5CCC5)CC4)CC3)nn2)c1 [Compound 1020, 3-{4-[2-(4-cyclobutylpiperazin-1-yl)-2-oxoethyl]piperazin-1-yl}-6-(3-methoxyphenyl) pyridazine]
25 | > 6.00 | N#Cc1cccc(-c2ccc(N3CCN(CC(=O)N4CCN(C5CCC5)CC4)CC3)cc2)c1 [Compound 1118, 4′-{1-[2-(4-cyclobutylpiperazin-1-yl)-2-oxoethyl]piperazin-1-yl}biphenyl-3-carbonitrile]
26 | > 6.00 | COc1ccc(-c2cnc(N3CCN(CC(=O)N4CCN(C5CCC5)CC4)CC3)cn2)cc1OC [Compound 945, 2-{4-[2-(4-cyclobutylpiperazin-1-yl)-2-oxoethyl]piperazin-1-yl}-5-(3,4-dimethoxyphenyl) pyrazine]
27 | > 6.00 | O=C(CN1CCN(c2cnc(-c3ccc(Cl)cc3Cl)cn2)CC1)N1CCN(C2CCC2)CC1 [Compound 968, 2-{4-[2-(4-cyclobutylpiperazin-1-yl)-2-oxoethyl]piperazin-1-yl}-5-(2,4-dichlorophenyl)pyrazine]

same assay, conditions: assay of Example 7; "*" in Ki of Table II; read-out: Ki

Row | pKi | SMILES
28 | > 6.00 | CCN(CC)C1CCN(CC(=O)N2CCN(C(C)C)CC2)C1 (stereo not shown) [Compound 1206, N,N-diethyl-1-[2-(4-isopropylpiperazin-1-yl)-2-oxoethyl]pyrrolidin-3-amine]
29 | > 6.00 | CCOC(=O)c1ccc(N2CCN(CC(=O)N3CCN(C4CCC4)CC3)CC2)cc1 [Compound 1201, ethyl 4-{4-[2-(4-cyclobutylpiperazin-1-yl)-2-oxoethyl]piperazin-1-yl}benzoate]
30 | > 6.00 | O=C(CC1CCCCC1)NC1CCN(CC(=O)N2CCN(C3CCC3)CC2)C1 (stereo not shown) [Compound 1249, N-{1-[2-(4-cyclobutylpiperazin-1-yl)-2-oxoethyl]pyrrolidin-3-yl}-2-cyclohexylacetamide]
31 | > 6.00 | O=C(NCC1CCCCC1)c1ccc(N2CCN(CC(=O)N3CCN(C4CCC4)CC3)CC2)cc1 [Compound 1144, 4-{4-[2-(4-cyclobutylpiperazin-1-yl)-2-oxoethyl]piperazin-1-yl}-N-(cyclohexylmethyl) benzamide]
32 | > 6.00 | CC(=O)NC1CCN(CC(=O)N2CCN(C3CCCC3)CC2)C1 (stereo not shown) [Compound 1258, N-{1-[2-(4-cyclopentylpiperazin-1-yl)-2-oxoethyl]pyrrolidin-3-yl}acetamide]
33 | > 6.00 | COc1ccc(C(=O)NC2CCN(CC(=O)N3CCN(C4CCC4)CC3)C2)cc1F (stereo not shown) [Compound 1243, N-{1-[2-(4-cyclobutylpiperazin-1-yl)-2-oxoethyl]pyrrolidin-3-yl}-3-fluoro-4-methoxybenzamide]
34 | > 6.00 | CCC(CC)CNC(=O)c1ccc(N2CCN(CC(=O)N3CCN(C4CCC4)CC3)CC2)cc1 [Compound 1146, 4-{4-[2-(4-cyclobutylpiperazin-1-yl)-2-oxoethyl]piperazin-1-yl}-N-(2-ethylbutyl)benzamide]

same assay, conditions: assay of Example 7; symbol * in column headed Ki of Table II; read-out: Ki

Row | pKi | SMILES
35 | > 6.00 | COc1cc(N2CCN(CC(=O)N3CCN(C4CCC4)CC3)CC2)ccc1Cl [Compound 344, 1-(4-chloro-3-methoxyphenyl)-4-[2-(4-cyclobutylpiperazin-1-yl)-2-oxoethyl]piperazine]
36 | > 6.00 | O=C(CN1CCN(c2ccc(-c3ccc(Cl)cc3F)cc2)CC1)N1CCN(C2CCC2)CC1 [Compound 341, 1-(4′-chloro-2′-fluorobiphenyl-4-yl)-4-[2-(4-cyclobutylpiperazin-1-yl)-2-oxoethyl]piperazine]
37 | > 6.00 | CCCN(CCC)C1CCN(CC(=O)N2CCN(C3CCCCC3)CC2)CC1 [Compound 441, 1-[2-(4-cyclohexylpiperazin-1-yl)-2-oxoethyl]-N,N-dipropylpiperidin-4-amine]
